Mutagenic call and call data for eight compounds are collected here from PubChem BioAssay AID1259408 (Genetic Toxicology Data Bank (GENE-TOX), 2018).

The data set relates to GENE-TOX genotoxicity assays, various organisms and cells. As to the kind of experiment: GENE-TOX mutagenicity studies.
[1] abbreviates: Species/Cell Type: Nonhuman, Assay Type: Sister-chromatid exchange (SCE) in vivo, Assay Code: SC3+D, Dose Response: With dose response, Evaluation Type: Evaluation B (Post-1980).
Setting [2] is: Species/Cell Type: Drosophila melanogaster, Assay Type: Sex-linked recessive lethal gene mutation, Assay Code: SRLT, Evaluation Type: Evaluation A (Pre-1980).

Calls of active or inactive are those of the source. No rule for the calls is given here.

For the compound `O=C(OC[C@@H]1O[C@H](OC(=O)c2cc(O)c(O)c(OC(=O)c3cc(O)c(O)c(O)c3)c2)[C@@H](OC(=O)c2cc(O)c(O)c(OC(=O)c3cc(O)c(O)c(O)c3)c2)[C@H](OC(=O)c2cc(O)c(O)c(OC(=O)c3cc(O)c(O)c(O)c3)c2)[C@H]1OC(=O)c1cc(O)c(O)c(OC(=O)c2cc(O)c(O)c(O)c2)c1)c1cc(O)c(O)c(OC(=O)c2cc(O)c(O)c(O)c2)c1`, the mutagenic call was “no conclusion” (Species/Cell Type: Escherichia coli polA (W3119 vs P3478), Assay Type: Rec-assay, DNA effects (bacterial DNA repair), Assay Code: RE1T, Evaluation Type: Evaluation A (Pre-1980)) and “active; positive” under setting [1].
For the compound `O=C(O)c1ccc([N+](=O)[O-])cc1`, the mutagenic call (Species/Cell Type: Salmonella typhimurium, Assay Type: Forward and reverse gene mutation, host-mediated assay, Assay Code: HMA-, Evaluation Type: Evaluation A (Pre-1980)) was “inactive; negative”.
In the case of `CCN(N=O)C(C)(C)C`, the mutagenic call under setting [2] is given as “no conclusion”.
In the case of `CN=NNc1c(Cl)cc(Cl)cc1Cl`, the mutagenic call under setting [2] is listed as “no conclusion”.
As to `O=NN1CCC(=O)NC1=O`, the mutagenic call (Species/Cell Type: Salmonella typhimurium (one or more of the five standard strains: TA98, TA100, TA1535, TA1537, and TA1538), Assay Type: Histidine reverse gene mutation, Ames assay, Assay Code: SAL+, Evaluation Type: Evaluation A (Pre-1980)) is “active; positive”.
With `c1ccccc1`, the mutagenic call is “active; positive” (Species/Cell Type: Human lymphocytes or leukocytes, Assay Type: Chromosome aberrations in vitro, Assay Code: CY7+, Evaluation Type: Evaluation A (Pre-1980)); “active; positive” (Species/Cell Type: Human lymphocytes or leukocytes, Assay Type: Chromosome aberrations in vivo, Assay Code: CY8+, Evaluation Type: Evaluation A (Pre-1980)); “active; positive” (Species/Cell Type: Human lymphocytes, Assay Type: Sister-chromatid exchange (SCE) in vitro, Assay Code: SCL+*, Activation: With metabolic activation, Evaluation Type: Evaluation B (Post-1980)); “inactive; negative” (Species/Cell Type: Human lymphocytes, Assay Type: Sister-chromatid exchange (SCE) in vitro, Assay Code: SCL-, Evaluation Type: Evaluation A (Pre-1980)); “active; positive” (Species/Cell Type: Human lymphocytes, Assay Type: Sister-chromatid exchange (SCE) in vivo, Assay Code: SCY+, Evaluation Type: Evaluation B (Post-1980)); “active; positive” (Species/Cell Type: Human, Assay Type: Sister-chromatid exchange (SCE) in vitro, Assay Code: SC1+*, Activation: With metabolic activation, Evaluation Type: Evaluation B (Post-1980)). The mutagenic call reads like this: (Species/Cell Type: Human, Assay Type: Sister-chromatid exchange (SCE) in vitro, Assay Code: SC1-, Evaluation Type: Evaluation A (Pre-1980)) “inactive; negative”; (Species/Cell Type: Mammalian polychromatic erythrocytes, Assay Type: Micronucleus test, chromosome aberrations, Assay Code: MNT+, Evaluation Type: Evaluation A (Pre-1980)) “active; positive”; (Species/Cell Type: Mouse, Sex: Male, Assay Type: Sperm morphology, Assay Code: SPI+, Evaluation Type: Evaluation A (Pre-1980)) “active; positive”; (Species/Cell Type: Nonhuman, Assay Type: Sister-chromatid exchange (SCE) in vitro, Assay Code: SC2+D, Dose Response: With dose response, Evaluation Type: Evaluation B (Post-1980)) “active; positive”; under setting [1], “active; positive”; (Species/Cell Type: Syrian hamster embryo (SA7/SHE) cells, Assay Type: Cell transformation, viral enhanced, Assay Code: CT7-, Evaluation Type: Evaluation A (Pre-1980)) “inactive; negative”. For the same compound, the mutagenic call (Species/Cell Type: Tradescantia species, Assay Type: Gene mutation, Assay Code: TRM+D, Dose Response: With dose response, Evaluation Type: Evaluation A (Pre-1980)) was “active; positive”. For the same compound, under “Species/Cell Type: Nonhuman, Assay Type: In vivo carcinogenicity studies, Assay Code: CCG+, Evaluation Type: Evaluation A (Pre-1980)”, the call is “active; positive”.
Regarding `N#Cc1c(Cl)cccc1Cl`, the mutagenic call (Species/Cell Type: Saccharomyces cerevisiae, Assay Type: Mitotic recombination or gene conversion, Assay Code: YEC-, Evaluation Type: Evaluation A (Pre-1980)) is “inactive; negative”.
`CC(=O)ON(C(C)=O)c1ccc(-c2ccccc2)cc1`: the mutagenic call is, setting by setting: (Species/Cell Type: Human diploid fibroblasts, Assay Type: Unscheduled DNA synthesis (UDS) in vitro, DNA effects, Assay Code: UDH+, Evaluation Type: Evaluation A (Pre-1980)) “active; positive”; (Species/Cell Type: Nonhuman, Assay Type: Sister-chromatid exchange (SCE) in vitro, Assay Code: SC2+, Evaluation Type: Evaluation B (Post-1980)) “active; positive”.
